ChEMBL document CHEMBL5543150, “Design, Synthesis, and Pharmacological Evaluation of Spiro[carbazole-3,3'-pyrrolidine] Derivatives as cGAS Inhibitors for Treatment of Acute Lung Injury” (J Med Chem, 2024)
Values joined by “and” are separate entries in the source; they are usually repeats but may differ in a detail not shown here. Equal values may be shown once.

Legend:
Cyclic GMP-AMP synthase [1] = target: T1, Cyclic GMP-AMP synthase (Homo sapiens, UniProt Q8N884); assay: Inhibition of cGAS in human THP1-Dual cells preincubated for 1 hr followed by cGAMP addition and measured after 24 hrs by luminescence based QUANTI-Luc assay
THP1-Dual = assay: Cytotoxicity against human THP1-Dual cells incubated for 24 hrs by CCK-8 method
Cyclic GMP-AMP synthase [2] = target: T2, Cyclic GMP-AMP synthase (Mus musculus, UniProt Q8C6L5)
Cyclic GMP-AMP synthase [3] = target: T1, Cyclic GMP-AMP synthase; assay: Inhibition of cGAS in dsDNA activated human THP1-Dual cells preincubated for 1 hr followed by cGAMP addition and measured after 24 hrs by luminescence based QUANTI-Luc assay
[4] = Half life in rat at 3 mg/kg, po; details: in vivo
Cyclic GMP-AMP synthase [5] = target: T2, Cyclic GMP-AMP synthase; assay: Inhibition of cGAS in mouse RAW-Lucia ISG cells preincubated for 1 hr followed by cGAMP addition and measured after 24 hrs by luminescence based QUANTI-Luc assay
in vivo [6] = details: rat, po, 3 mg/kg
Description: Tmax in rat at 3 mg/kg, po

in vivo [7] = details: rat, po, 3 mg/kg; remark: listed apart in the source
Description: Cmax in rat at 3 mg/kg, po

[8] = Cytotoxicity against mouse RAW-Lucia ISG cells incubated for 24 hrs by CCK-8 method
[9] = MRT last in rat at 3 mg/kg, po; details: in vivo
in vivo [10] = details: rat, po, 3 mg/kg; remark: listed apart in the source
Description: Oral bioavailability in rat at 3 mg/kg

Cyclic GMP-AMP synthase [11] = target: T2, Cyclic GMP-AMP synthase; assay: Inhibition of cGAS in dsDNA activated mouse RAW-Lucia ISG cells preincubated for 1 hr followed by cGAMP addition and measured after 24 hrs by luminescence based QUANTI-Luc assay
in vivo [12] = details: rat, iv, 1 mg/kg
[13] = MRT last in rat at 1 mg/kg, iv; details: in vivo
in vivo [14] = details: rat, po, 3 mg/kg; remark: listed apart in the source
Description: AUC last in rat at 3 mg/kg, po

[15] = Volume of distribution at steady state in rat at 1 mg/kg, iv; details: in vivo
Cyclic GMP-AMP synthase [16] = target: T1, Cyclic GMP-AMP synthase; assay: Inhibition of cGAS in dsDNA stimulated human THP-1 cells assessed as inhibition of IFNB1 mRNA level by qRT-PCR analysis
[17] = Half life in rat at 1 mg/kg, iv; details: in vivo
Cyclic GMP-AMP synthase [18] = target: T1, Cyclic GMP-AMP synthase; assay: Inhibition of full length recombinant human cGAS expressed in Escherichia coli BL21 (DE3) incubated for 7 hrs by Kinase-glo max luminescent kinase assay
Cyclic GMP-AMP synthase [19] = target: T1, Cyclic GMP-AMP synthase; assay: Binding affinity to human cGAS assessed as dissociation constant measured upto 240 secs by surface plasmon resonance assay
in vivo [20] = details: rat, iv, 1 mg/kg; remark: listed apart in the source
Cyclic GMP-AMP synthase [21] = target: T2, Cyclic GMP-AMP synthase; assay: Inhibition of mouse cGas incubated for 120 mins
Cyclic GMP-AMP synthase [22] = target: T1, Cyclic GMP-AMP synthase; assay: Inhibition of human cGas incubated for 120 mins

T1 sequence (Q8N884 whole entry): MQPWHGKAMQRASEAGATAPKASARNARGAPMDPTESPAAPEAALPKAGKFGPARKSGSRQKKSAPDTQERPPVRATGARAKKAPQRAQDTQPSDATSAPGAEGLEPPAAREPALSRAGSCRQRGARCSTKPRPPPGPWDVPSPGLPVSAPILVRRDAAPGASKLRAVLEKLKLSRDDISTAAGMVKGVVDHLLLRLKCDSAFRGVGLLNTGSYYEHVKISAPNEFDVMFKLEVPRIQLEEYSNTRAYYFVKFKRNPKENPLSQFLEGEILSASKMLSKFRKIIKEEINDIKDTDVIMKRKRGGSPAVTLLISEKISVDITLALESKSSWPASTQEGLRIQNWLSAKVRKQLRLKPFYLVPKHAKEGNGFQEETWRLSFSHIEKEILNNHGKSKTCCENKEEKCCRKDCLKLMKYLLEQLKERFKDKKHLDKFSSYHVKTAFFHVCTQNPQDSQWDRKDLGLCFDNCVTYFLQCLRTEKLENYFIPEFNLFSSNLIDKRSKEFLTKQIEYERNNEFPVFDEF
T2 sequence (Q8C6L5 whole entry): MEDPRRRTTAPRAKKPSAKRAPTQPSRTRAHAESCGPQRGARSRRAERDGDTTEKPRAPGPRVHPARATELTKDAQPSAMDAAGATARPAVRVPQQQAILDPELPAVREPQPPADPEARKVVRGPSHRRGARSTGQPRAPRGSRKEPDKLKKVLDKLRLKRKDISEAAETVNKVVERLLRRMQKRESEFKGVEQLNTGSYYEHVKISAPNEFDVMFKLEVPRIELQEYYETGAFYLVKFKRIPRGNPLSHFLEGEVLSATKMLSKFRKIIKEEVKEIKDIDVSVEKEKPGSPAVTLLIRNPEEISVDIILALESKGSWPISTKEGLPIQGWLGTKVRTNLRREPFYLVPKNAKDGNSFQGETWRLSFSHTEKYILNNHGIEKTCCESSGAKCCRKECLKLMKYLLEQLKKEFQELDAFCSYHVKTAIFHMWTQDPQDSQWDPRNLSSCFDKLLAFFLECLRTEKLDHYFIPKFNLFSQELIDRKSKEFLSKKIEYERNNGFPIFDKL

Row | Structure (SMILES) | IC50 (Cyclic GMP-AMP synthase [1]) [µM] | CC50 (THP1-Dual) [µM] | also measured
1 | Cn1ccc(-c2cc(Cl)c(Cl)c3c2[C@@H]2CN(C(=O)CO)CC[C@@H]2N3)n1 | > 50 | > 50 | 
2 | C[C@@H](O)C(=O)N1CCC2(CCc3[nH]c4c(Cl)c(Cl)cc(-c5ccnc(C(F)(F)F)c5)c4c3C2)C1 (stereo not given in full) | 17.6 | 39.1 | 
3 | Cn1cc(-c2cc(Cl)c(Cl)c3[nH]c4c(c23)CC2(CC4)CCN(C(=O)CO)C2)cn1 (stereo not given) | 24.7 | > 50 | 
4 | O=C(CO)N1CCC2(CCc3[nH]c4c(Cl)c(Cl)cc(-c5cnn(C6CCNCC6)c5)c4c3C2)C1 (stereo not given) | 12.9 | > 50 | 
5 | C#CC(=O)N1CCn2cccc2C1c1ccccc1 (stereo not given) |  |  | IC50 (Cyclic GMP-AMP synthase [2]): 0.97 µM
6 | Cn1ccc(-c2cc(Cl)c(Cl)c3[nH]c4c(c23)CC2(CC4)CCN(C(=O)CO)CC2)n1 | 12.9 | > 50 | 
7 | C[C@H](O)[C@@H](N)C(=O)N1CCC2(CCc3[nH]c4c(Cl)c(Cl)cc(-c5ccnc(C(F)(F)F)c5)c4c3C2)C1 (stereo not given in full) | 11 | 30.3 | 
8 | O=C(CO)N1CCC2(CCc3[nH]c4c(Cl)c(Cl)cc(-c5ccnc(C(F)F)c5)c4c3C2)C1 (stereo not given) | 6.43 | 10.6 | 
9 | O=C(CO)N1CCC2(CCc3[nH]c4c(Cl)c(Cl)cc(-c5ccnc(F)c5)c4c3C2)C1 (stereo not given) | 6.27 | 13.6 | 
10 | Nc1ccc(-c2cc(Cl)c(Cl)c3[nH]c4c(c23)CC2(CC4)CCN(C(=O)CO)C2)cn1 (stereo not given) | 8.04 | 47.8 | IC50 (Cyclic GMP-AMP synthase [3]): 8.04 µM
11 | Cn1ccc(-c2cc(Cl)c(Cl)c3[nH]c4c(c23)CN(C(=O)CO)CC4)n1 | 4.82 |  | half-life [4]: 1.31 h; IC50 (Cyclic GMP-AMP synthase [5]): 14.6 µM and > 10 µM; Tmax (in vivo [6]): 2.67 h; Cmax (in vivo [7]): 375 ng/mL; CC50 [8]: 51.8 µM; MRT last [9]: 3.56 h; bioavailability (in vivo [10]): 64.1%; IC50 (Cyclic GMP-AMP synthase [11]): 14.6 µM; AUC(0-t) (in vivo [12]): 792 ng·h/mL; MRT last [13]: 1.5 h; AUC(0-t) (in vivo [14]): 1520 ng·h/mL; Vd [15]: 1.88 L/kg; IC50 (Cyclic GMP-AMP synthase [16]): 1.7 µM; half-life [17]: 1.03 h; IC50 (Cyclic GMP-AMP synthase [18]): 0.051 µM; Kd (Cyclic GMP-AMP synthase [19]): 0.053 µM; clearance (in vivo [20]): 20.7 mL/min/kg
12 | CC(C)=C(C#N)C(=O)N1CCC2(CCc3[nH]c4c(Cl)c(Cl)cc(-c5ccnc(C(F)(F)F)c5)c4c3C2)C1 (stereo not given) | 8.46 | 45.1 | 
13 | Cn1nc(C(F)(F)F)cc1-c1cc(Cl)c(Cl)c2[nH]c3c(c12)CC1(CC3)CCN(C(=O)CO)C1 (stereo not given) | 5.82 | 17.3 | 
14 | O=C(CO)N1CCC2(CCc3[nH]c4c(Cl)c(Cl)cc(-c5ccc(C(F)(F)F)nc5)c4c3C2)C1 (stereo not given) | 8.66 | 31.7 | 
15 | C[C@H](O)C(=O)N1CCC2(CCc3[nH]c4c(Cl)c(Cl)cc(-c5ccnc(C(F)(F)F)c5)c4c3C2)C1 (stereo not given in full) | 38.8 | 12.7 | 
16 | Nc1cc(-c2cc(Cl)c(Cl)c3[nH]c4c(c23)CC2(CC4)CCN(C(=O)CO)C2)ccn1 (stereo not given) | 6.45 | > 50 | IC50 (Cyclic GMP-AMP synthase [5]): 4.71 µM; IC50 (Cyclic GMP-AMP synthase [11]): 4.71 µM; IC50 (Cyclic GMP-AMP synthase [3]): 6.45 µM
17 | O=C(CO)N1CCC2(CCc3[nH]c4c(Cl)c(Cl)cc(-c5ccnc(C(F)(F)F)c5)c4c3C2)C1 (stereo not given) | 4.45 | 34 | half-life [4]: 1.82 h; IC50 (Cyclic GMP-AMP synthase [5]): 11.4 µM; Tmax (in vivo [6]): 0.667 h; Cmax (in vivo [7]): 223 ng/mL; MRT last [9]: 2.99 h; bioavailability (in vivo [10]): 30%; IC50 (Cyclic GMP-AMP synthase [11]): 11.4 µM; AUC(0-t) (in vivo [12]): 1070 ng·h/mL; MRT last [13]: 3.59 h; AUC(0-t) (in vivo [14]): 920 ng·h/mL; Vd [15]: 4.48 L/kg; IC50 (Cyclic GMP-AMP synthase [3]): 4.45 µM; half-life [17]: 3.36 h; clearance (in vivo [20]): 15.5 mL/min/kg
18 | N#Cc1cc(-c2cc(Cl)c(Cl)c3[nH]c4c(c23)CC2(CC4)CCN(C(=O)CO)C2)ccn1 (stereo not given) | 6.35 | 10.3 | 

Row | Structure (SMILES) | IC50 (Cyclic GMP-AMP synthase [1]) [µM] | CC50 (THP1-Dual) [µM] | also measured
19 | Cc1nn(-c2cc3ccc(Cl)c(Cl)c3[nH]2)c(O)c1C1OC(=O)c2ccccc21 (stereo not given) |  |  | IC50 (Cyclic GMP-AMP synthase [21]): 2.94 µM; IC50 (Cyclic GMP-AMP synthase [22]): 0.11 µM
20 | NCC(=O)N1CCC2(CCc3[nH]c4c(Cl)c(Cl)cc(-c5ccnc(C(F)(F)F)c5)c4c3C2)C1 (stereo not given) | 3.41 | 11.1 | 
21 | C[C@@H](N)C(=O)N1CCC2(CCc3[nH]c4c(Cl)c(Cl)cc(-c5ccnc(C(F)(F)F)c5)c4c3C2)C1 (stereo not given in full) | 6.94 | 7.08 | 
22 | Cn1ncc(-c2cc(Cl)c(Cl)c3[nH]c4c(c23)CC2(CC4)CCN(C(=O)CO)C2)n1 (stereo not given) | 10.5 | 26.3 | 
23 | O=C(CO)N1CCC2(CCc3[nH]c4c(Cl)c(Cl)cc(-c5cnn(C(F)F)c5)c4c3C2)C1 (stereo not given) | 5.8 | 37.7 | IC50 (Cyclic GMP-AMP synthase [5]): 8.69 µM; IC50 (Cyclic GMP-AMP synthase [11]): 8.69 µM; IC50 (Cyclic GMP-AMP synthase [3]): 5.8 µM
24 | O=C(CO)N1CCC2(CCc3[nH]c4c(Cl)c(Cl)cc(-c5ccc(F)nc5F)c4c3C2)C1 (stereo not given) | 7.15 | 33.4 | 
25 | Cn1ccc(-c2cc(Cl)c(Cl)c3[nH]c4c(c23)CC2(CC4)CCN(C(=O)CO)C2)n1 (stereo not given) | 7.65 | > 50 | IC50 (Cyclic GMP-AMP synthase [5]): 8.91 µM; IC50 (Cyclic GMP-AMP synthase [11]): 8.91 µM; IC50 (Cyclic GMP-AMP synthase [3]): 7.65 µM
26 | O=C(CO)N1CCC2(CCc3[nH]c4c(Cl)c(Cl)cc(-c5ccnc(C(F)(F)F)n5)c4c3C2)C1 (stereo not given) | 4.26 | 14.4 | 
27 | CS(=O)(=O)CC(=O)N1CCC2(CCc3[nH]c4c(Cl)c(Cl)cc(-c5ccnc(C(F)(F)F)c5)c4c3C2)C1 (stereo not given) | 9.48 | 10.4 | 
28 | O=C(CO)N1CCC2(CCc3[nH]c4c(Cl)c(Cl)cc(-c5ccnc(OC(F)F)c5)c4c3C2)C1 (stereo not given) | 6.41 | 13.2 | 
29 | C[C@H](N)C(=O)N1CCC2(CCc3[nH]c4c(Cl)c(Cl)cc(-c5ccnc(C(F)(F)F)c5)c4c3C2)C1 (stereo not given in full) | 4.3 | 16.4 | 
30 | Cn1ccc(-c2cc(Cl)c(Cl)c3[nH]c4c(c23)CC2(CCN(C(=O)CO)CC2)C4)n1 | 37.4 | > 50 | 
31 | N#Cc1ncc(-c2cc(Cl)c(Cl)c3[nH]c4c(c23)CC2(CC4)CCN(C(=O)CO)C2)cc1F (stereo not given) | 7.82 | 33.1 | 
32 | O=C(CO)N1CCC2(CCc3[nH]c4c(Cl)c(Cl)cc(-c5cnc(C(F)(F)F)nc5)c4c3C2)C1 (stereo not given) | 7.54 | 34 | IC50 (Cyclic GMP-AMP synthase [3]): 7.54 µM
33 | Cn1ccc(-c2cc(Cl)c(Cl)c3[nH]c4c(c23)CC(NC(=O)CO)CC4)n1 (stereo not given) | > 50 | > 50 | 
34 | O=C(CO)N1CCC2(CCc3[nH]c4c(Cl)c(Cl)cc(-c5cn[nH]c5)c4c3C2)C1 (stereo not given) | 5.86 | 13.7 | 
35 | Cn1ccc(-c2cc(Cl)c(Cl)c3[nH]c4c(c23)CC2(CC4)CN(C(=O)CO)C2)n1 | 36 | 17.7 | 
